Assay results taken from ChEMBL document CHEMBL1949615, “Dual β2-adrenoceptor agonists-PDE4 inhibitors for the treatment of asthma and COPD” (Bioorg Med Chem Lett, 2012).
Calls of active or inactive are those of the source. No cut-off for these calls is given here.

Assays:
[1] = target: 3',5'-cyclic-AMP phosphodiesterase 4B (Homo sapiens, UniProt Q07343); test: Inhibition of human recombinant PDE4B2-mediated cAMP hydrolysis for 30 mins by colorimetric assay
[2] = Inhibition of PDE4
[3] = target: T1, Beta-2 adrenergic receptor (Cavia porcellus, UniProt Q8K4Z4); test: Agonist activity at beta2 adrenoceptor in guinea pig assessed as relaxation of histamine-induced tracheal ring contraction; assay type: functional, tissue-based, Trachea
[4] = target: Beta-2 adrenergic receptor (Cavia porcellus) (UniProt Q8K4Z4); test: Agonist activity at beta2 adrenoceptor in guinea pig assessed as relaxation of histamine-induced tracheal ring contraction in the presence of inverse agonist ICI-118551; assay type: functional, tissue-based; settings: Trachea
[5] = target: T1, Beta-2 adrenergic receptor; test: Competitive antagonist activity at beta2-adrenoceptor in guinea pig tracheal ring in the presence of N-(5-((1R)-2-(4-(4-(3,4-[…])-1-oxo-4a,5,6,7,8,8a-hexahydrophthalazin-2(1H)-yl)butylamino-1-hydroxyethyl)-2-hydroxyphenyl)formamide; assay type: functional; settings: read-out: pA2 (converted)

Sequence of 3',5'-cyclic-AMP phosphodiesterase 4B (Q07343 whole entry): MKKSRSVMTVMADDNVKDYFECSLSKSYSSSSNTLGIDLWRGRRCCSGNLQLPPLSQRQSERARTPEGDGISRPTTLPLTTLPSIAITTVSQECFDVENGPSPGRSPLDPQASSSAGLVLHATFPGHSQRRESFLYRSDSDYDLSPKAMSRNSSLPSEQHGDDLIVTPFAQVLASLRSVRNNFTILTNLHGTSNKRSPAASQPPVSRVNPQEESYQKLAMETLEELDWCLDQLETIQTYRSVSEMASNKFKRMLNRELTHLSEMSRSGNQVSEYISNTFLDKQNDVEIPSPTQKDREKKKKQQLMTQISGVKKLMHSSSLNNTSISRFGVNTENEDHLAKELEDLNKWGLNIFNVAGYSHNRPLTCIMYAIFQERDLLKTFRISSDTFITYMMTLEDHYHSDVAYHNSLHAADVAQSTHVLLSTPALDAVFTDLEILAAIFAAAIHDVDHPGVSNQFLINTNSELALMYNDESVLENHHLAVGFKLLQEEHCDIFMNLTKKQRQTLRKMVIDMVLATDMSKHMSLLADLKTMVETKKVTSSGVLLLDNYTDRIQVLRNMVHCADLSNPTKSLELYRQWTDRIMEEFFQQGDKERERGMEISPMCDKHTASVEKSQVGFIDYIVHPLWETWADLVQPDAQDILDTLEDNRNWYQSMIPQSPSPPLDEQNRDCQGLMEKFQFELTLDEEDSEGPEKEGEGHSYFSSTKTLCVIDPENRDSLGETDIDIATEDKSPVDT
T1 sequence (Q8K4Z4 whole entry): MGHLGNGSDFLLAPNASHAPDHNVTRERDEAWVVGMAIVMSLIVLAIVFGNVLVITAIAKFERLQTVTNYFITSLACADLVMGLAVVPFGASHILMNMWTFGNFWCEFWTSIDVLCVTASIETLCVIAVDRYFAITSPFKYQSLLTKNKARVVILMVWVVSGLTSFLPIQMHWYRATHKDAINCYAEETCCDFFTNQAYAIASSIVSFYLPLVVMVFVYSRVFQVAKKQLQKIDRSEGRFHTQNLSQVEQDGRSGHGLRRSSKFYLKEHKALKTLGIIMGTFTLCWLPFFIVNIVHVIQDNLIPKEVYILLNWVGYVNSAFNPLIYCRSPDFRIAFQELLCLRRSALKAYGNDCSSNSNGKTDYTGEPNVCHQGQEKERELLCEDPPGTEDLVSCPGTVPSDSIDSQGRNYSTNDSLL
Sequence of Beta-2 adrenergic receptor (Cavia porcellus) (Q8K4Z4 whole entry, looked up): as the sequence (Q8K4Z4 whole entry) above

Structure (SMILES): COc1ccc(C2=NNC(=O)C3CCCCC23)cc1OC (stereo not drawn)
- IC50 [1]: 0.52 µM

Structure (SMILES): O=c1[nH]ncc2ccccc12 [PHTHALAZINONE]
- IC50 [1]: 0.52 µM

Structure (SMILES): COc1ccc([C@]2(C#N)CC[C@@H](C(=O)O)CC2)cc1OC1CCCC1 [CILOMILAST]
- IC50 [2]: 0.095 µM

Structure (SMILES): CC(C)NCC(O)c1ccc(O)c(O)c1 (stereo not drawn) [ISOPROTERENOL]
- EC50 [3]: 0.0316 µM

Structure (SMILES): COc1ccc(C2=NN(CCCCNC[C@@H](O)c3ccc(O)c(NC=O)c3)C(=O)C3CCCCC23)cc1OC (stereo partly drawn)
- EC50 [3]: 0.126 µM
- IC50 [1]: 0.284 µM

Structure (SMILES): COc1ccc(C2=NN(CCNCC(O)c3ccc(O)c(NC=O)c3)C(=O)C3CCCCC23)cc1OC (stereo not drawn)
- EC50 [3]: 0.02 µM
- IC50 [1]: 0.28 µM

Structure (SMILES): COc1ccc(C2=NN(CCCCNCC(O)c3ccc(O)c(NC=O)c3)C(=O)C3CCCCC23)cc1OC (racemic)
- EC50 [3]: 0.000501 µM
- IC50 [1]: 0.278 µM

Structure (SMILES): COc1ccc(C2=NN(CCCCCCNCC(O)c3ccc(O)c(NC=O)c3)C(=O)C3CCCCC23)cc1OC (stereo not drawn)
- EC50 [3]: 0.0501 µM
- IC50 [1]: 0.251 µM

Structure (SMILES): COc1ccc(C2=NN(CCCCNC[C@H](O)c3ccc(O)c(NC=O)c3)C(=O)C3CCCCC23)cc1OC (stereo partly drawn)
- Activity [4]: inactive
- Kb [5]: 0.000708 µM
- EC50 [3]: 0.0001 µM
- IC50 [1]: 0.265 µM

Structure (SMILES): COc1ccc(C2=NN(CCCCCNCC(O)c3ccc(O)c(NC=O)c3)C(=O)C3CCCCC23)cc1OC (stereo not drawn)
- EC50 [3]: 0.02 µM
- IC50 [1]: 0.257 µM
